Measurements published in patent US20120263649A1, “DETECTION OF MYCOBACTERIA” (priority 2009, published 2012).

Key:
Ag85B = Ag85B (Mycobacterium tuberculosis, UniProt P9WQP1); assay type: biochemical; details: ratio of peak height of mono-hexanoyl ester of labelled/derivatised Tre to peak height of labelled/derivatised Tre; 500 μM di-hexanoyl ester, 500 μM substrate, 100 nM enzyme, 1 mM TEA pH 7.2, 37° C; compound 1 (Tre) = 100
Ag85C = Ag85C (Mycobacterium tuberculosis, UniProt P9WQN9); assay type: biochemical; details: ratio of peak height of mono-hexanoyl ester of labelled/derivatised Tre to peak height of labelled/derivatised Tre; 500 μM di-hexanoyl ester, 500 μM substrate, 100 nM enzyme, 1 mM TEA pH 7.2, 37° C; compound 1 (Tre) = 100
Ag85A = Ag85A (Mycobacterium tuberculosis, UniProt P9WQP3); assay type: biochemical; details: ratio of peak height of mono-hexanoyl ester of labelled/derivatised Tre to peak height of labelled/derivatised Tre; 500 μM di-hexanoyl ester, 500 μM substrate, 100 nM enzyme, 1 mM TEA pH 7.2, 37° C; compound 1 (Tre) = 100
[1] = test system: J774 Macrophages infected with H37Rv Mtb; test: FITC-Tre uptake into infected macrophages, confocal microscopy with anti-Mtb antibody; assay type: cell-based, murine; details: FIG. 7(j); antibody labelled with Alexa-594
Protocol: J774 Macrophages were grown to confluency on coverslips and then were infected with H37Rv Mtb (2-3 bacteria/macrophage). After 4 hours infection time, macrophages were washed to remove free bacteria and FITC-Tre was added in ethanol to desired concentrations (1 μM, 10 μM, 50 μM, 100 μM). Quantum dots (QDs) were treated in an analogous fashion and were added to a concentration of dots of (7 nm) with roughly 110 sugars/dot (1 μM effective sugar concentration) Uncoated QDs were utilized as a control. RFP expressing BCG was also treated in an identical fashion.
Cells were fixed at different timepoints utilizing the following procedure: Media was removed and cells were washed in PBS Buffer. Cells were then fixed in an aqueous solution of 5% formalin is phosphate buffered saline (PBS) for 15 minutes and then washed again using two 2-minute treatments with PBS (0.5 ml) for 2 min. […]
Images of stained cells were obtained by confocal microscopy (Leica SP2, Leica Microsystems, Exton, Pa.) using a 63× oil immersion objective NA 1.4. Multiple fields were sampled, and representative images were recorded. […] DAPI was first excited at 405 nm and emission spectrum was recorded (416 nm-482 nm) before the other fluorochromes were excited and emission spectrums recorded. Essential Sequential Z sections of stained cells were also recorded for generation of stacked images through cell. […]

Chain of Ag85A (P9WQP3 44-338): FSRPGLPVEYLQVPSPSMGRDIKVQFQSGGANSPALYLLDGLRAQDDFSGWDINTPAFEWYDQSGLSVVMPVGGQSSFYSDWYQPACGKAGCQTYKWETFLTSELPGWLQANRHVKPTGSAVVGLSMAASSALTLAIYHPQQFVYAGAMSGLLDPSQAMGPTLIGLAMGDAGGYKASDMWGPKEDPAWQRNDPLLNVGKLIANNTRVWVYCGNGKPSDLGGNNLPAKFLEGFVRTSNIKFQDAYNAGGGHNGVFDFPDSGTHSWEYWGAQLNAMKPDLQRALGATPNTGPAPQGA
Chain of Ag85C (P9WQN9 46-340): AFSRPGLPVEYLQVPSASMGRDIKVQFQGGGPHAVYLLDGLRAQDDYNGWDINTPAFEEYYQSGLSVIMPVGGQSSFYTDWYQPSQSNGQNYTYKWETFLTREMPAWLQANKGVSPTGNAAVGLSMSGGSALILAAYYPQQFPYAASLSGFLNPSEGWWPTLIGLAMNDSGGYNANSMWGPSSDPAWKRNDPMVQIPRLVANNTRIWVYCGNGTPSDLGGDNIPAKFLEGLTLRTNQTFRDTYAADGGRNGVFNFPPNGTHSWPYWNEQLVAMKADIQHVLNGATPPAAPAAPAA
Chain of Ag85B (P9WQP1 41-325): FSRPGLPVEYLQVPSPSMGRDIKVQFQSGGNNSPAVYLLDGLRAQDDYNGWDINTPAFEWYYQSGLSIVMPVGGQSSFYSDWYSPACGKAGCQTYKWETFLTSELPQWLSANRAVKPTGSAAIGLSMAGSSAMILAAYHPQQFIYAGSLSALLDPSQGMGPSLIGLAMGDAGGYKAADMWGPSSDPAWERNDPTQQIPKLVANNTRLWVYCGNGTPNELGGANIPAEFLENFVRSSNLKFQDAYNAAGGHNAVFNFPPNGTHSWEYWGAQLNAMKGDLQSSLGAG

| SMILES | Relative substrate response towards transesterification, Ag85B (Ag85B) | Relative substrate response towards transesterification, Ag85C (Ag85C) | Relative substrate response towards transesterification, Ag85A (Ag85A) | Colocalization of probe with anti-Mtb antibody signal in infected macrophages [1] |
| --- | --- | --- | --- | --- |
| OC[C@H]1O[C@H](O[C@H]2O[C@H](CO)[C@@H](O)[C@H](O)[C@H]2O)[C@H](O)[C@@H](O)[C@@H]1O [Compound 1, trehalose, reference compound] | 100 | 100 | 100 | – |
| C[C@]1(O[C@H]2OC(CO)[C@@H](O)C(O)C2O)OC(CO)[C@@H](O)C(O)C1O (stereo partly drawn) [Compound 2, 1-Deoxy-α-D-gluco-hept-2-ulopyranosyl-(2→1)-α-D-glucopyranoside] | 13 | 111 | 32 | – |
| C[C@]1(O[C@H]2OC(CO)[C@@H](O)C(O)C2F)OC(CO)[C@@H](O)C(O)C1O (stereo partly drawn) [Compound 3, 1-Deoxy-α-D-gluco-hept-2-ulopyranosyl-(2→1)-2-deoxy-2-fluoro-α-D-glucopyranoside] | 1415 | 102 | 73 | – |
| C[C@]1(O[C@H]2OC(CO)[C@@H](O)C(O)C2O)OC(CO)[C@H](O)C(O)C1O (stereo partly drawn) [Compound 4, 1-Deoxy-α-D-galacto-hept-2-ulopyranosyl-(2→1)-α-D-glucopyranoside] | 7 | 57 | 12 | – |
| C[C@]1(O[C@H]2OC(CO)[C@@H](O)C(O)C2F)OC(CO)[C@H](O)C(O)C1O (stereo partly drawn) [Compound 5, 1-Deoxy-α-D-galacto-hept-2-ulopyranosyl-(2→1)-2-deoxy-2-fluoro-α-D-glucopyranoside] | 13 | 64 | 19 | – |
| C[C@]1(O[C@H]2OC(CO)[C@@H](O)C(F)C2O)OC(CO)[C@@H](O)C(O)C1O (stereo partly drawn) [Compound 6, 1-Deoxy-α-D-gluco-hept-2-ulopyranosyl-(2→1)-3-fluoro-3-deoxy-α-D-glucopyranoside] | 8 | 76 | 7 | – |
| C[C@]1(O[C@H]2OC(CO)[C@@H](O)C(O)C2N)OC(CO)[C@@H](O)C(O)C1O (stereo partly drawn) [Compound 7, 1-Deoxy-α-D-gluco-hept-2-ulopyranosyl-(2→1)-2-amino-2-deoxy-α-D-glucopyranoside] | 56 | 91 | 47 | – |
| C[C@]1(O[C@H]2OC(CO)[C@@H](O)C(O)C2NC(=S)Nc2ccc(-c3c4ccc(=O)cc-4oc4cc(O)ccc34)c(C(=O)O)c2)OC(CO)[C@@H](O)C(O)C1O (stereo partly drawn) [Compound 9, 1-Deoxy-α-D-gluco-hept-2-ulopyranosyl-(2→1)-2-N-fluorescein-2-deoxy-α-D-glucopyranoside] | 38 | 44 | 229 | colocalization of FITC-Tre and antibody |
| OCC1O[C@H](O[C@@H]2CC(O)[C@H](O)C(CO)O2)CC(O)[C@@H]1O (stereo partly drawn) [Compound 10, 2′-Deoxy-α-D-arabino-hexopyranosyl-(1→1)-2-deoxy-α-D-arabino-hexopyranoside] | 16 | 129 | 50 | – |
| OCC1O[C@H](O[C@@H]2CC(O)[C@@H](O)C(CO)O2)CC(O)[C@H]1O (stereo partly drawn) [Compound 11, 2′-Deoxy-α-D-lyxo-hexopyranosyl-(1→1)-2-deoxy-α-D-lyxo-hexopyranoside] | 4 | 1 | 1 | – |
| OCC1O[C@H](O[C@H]2OC(CO)[C@@H](O)C(O)C2I)C(I)C(O)[C@@H]1O (stereo partly drawn) [Compound 12, 2′-Deoxy-2′-iodo-α-D-mannopyranosyl-(1→1)-2-deoxy-2-iodo-α-D-mannopyranoside] | 54 | 166 | 148 | – |
| OCC1O[C@H](O[C@H]2OC(CO)[C@@H](O)C(O)C2F)C(F)C(O)[C@@H]1O (stereo partly drawn) [Compound 13, 2′-Deoxy-2′-fluoro-α-D-mannopyranosyl-(1→1)-2-deoxy-2-fluoro-α-D-mannopyranoside] | 24 | 98 | 66 | – |
| OCC1O[C@H](O[C@@H]2OC(CO)[C@@H](O)C(O)C2F)C(F)C(O)[C@@H]1O (stereo partly drawn) [Compound 14, 2′-Deoxy-2′-fluoro-α-D-mannopyranosyl-(1→1)-2-deoxy-2-fluoro-β-D-mannopyranoside] | 35 | 82 | 7 | – |
| O=P(O)(O)OCC1O[C@H](O[C@H]2OC(CO)[C@@H](O)C(O)C2O)C(O)C(O)[C@@H]1O (stereo partly shown) [Compound 15, Trehalose-6-phosphate] | 4 | 28 | 6 | – |
| COP(=O)(O)OCC1O[C@H](O[C@H]2OC(CO)[C@@H](O)C(O)C2O)C(O)C(O)[C@@H]1O (stereo partly drawn) [Compound 16, 6-O-monomethoxyphosphoryl-D-trehalose] | 24 | 113 | 37 | – |
| O=P1(O)OCC2O[C@H](O[C@H]3OC(CO)[C@@H](O)C(O)C3O)C(O)C(O)[C@@H]2O1 (stereo partly drawn) [Compound 17, 4,6-(monohydrogen)phosphoryl-D-trehalose] | 17 | 94 | 18 | – |
| [N-]=[N+]=NCC1O[C@H](O[C@H]2OC(CO)[C@@H](O)C(O)C2O)C(O)C(O)[C@@H]1O (stereo partly drawn) [Compound 18, 6-Azido-D-trehalose] | 13 | 64 | 37 | – |
| OCC1O[C@H](O[C@H]2OC(CBr)[C@@H](O)C(O)C2O)C(O)C(O)[C@@H]1O (stereo partly drawn) [Compound 19, 6-deoxy-6-bromo-α-D-glucopyranosyl-α-D-glucopyranoside] | 92 | 99 | 102 | – |
| OCC1O[C@H](O[C@H]2OC(CF)[C@@H](O)C(O)C2O)C(O)C(O)[C@@H]1O (stereo partly drawn) [Compound 20, 6-deoxy-6-fluoro-α-D-glucopyranosyl-α-D-glucopyranoside] | 412 | 91 | 149 | – |
| OC[C@H]1O[C@H](O[C@H]2O[C@H](CO)[C@H](F)[C@H](O)[C@H]2O)[C@H](O)[C@@H](O)[C@@H]1O [Compound 21, 4-deoxy-4-fluoro-α-D-galactopyranosyl α-D-glucopyranoside] | 412 | 91 | 229 | – |
